# Results taken from patent US20150031739A1, “PANOBINOSTAT FOR USE IN THE TREATMENT OF HIV-1” (Aarhus Universitet, priority 2012, published 2015).
# Legend:
# [1] = test system: HIV-1 expression in U1 cells; test: HIV-1 activation from U1 cells (p24 gag ELISA); format: cell-based; settings: 48 hours
# Experimental: (§1) HIV-1 activation from U1 cells: U1 cells (obtained through the NIH AIDS Reagent Program) are seeded at 2*10^5/well in a 96-well format in 100 uL RPMI media supplemented with 10% heat inactivated Foetal Bovine Serum and 1% penicillin/streptomycin. HDACi and PMA as positive control is added at desired concentrations in 100 uL. Identical DMSO levels is used for untreated control. All stimulations are performed in triplicate. 48 hours later supernatant is harvested and left for inactivation in 1% Empegen for 1 hour. Levels of HIV-1 p24 gag levels is determined by ELISA as described by the manufacturer (Aalto Bioreagents, Dublin, Ireland).
# [2] = test system: HIV-1 expression in ACH2 cells; test: HIV-1 activation from ACH2 cells (p24 gag ELISA); format: cell-based; settings: 48 hours
# Experimental: as §1, with “ACH2” for “U1”, “1*10^5/well” for “2*10^5/well”, “Samples are diluted 1/500 and levels” for “Levels”, “gag” for “gag levels”
# CXCR4 = settings: CD4+ T-cells; cited from earlier work
# CCR5 = settings: monocytes; cited from earlier work
# [3] = test system: latently infected cell lines (U1 and ACH2); test: HIV-1 expression from latently infected cell lines, statements for both lines; format: cell-based
# Experimental: as §1
# as §1, with “ACH2” for “U1”, “1*10^5/well” for “2*10^5/well”, “Samples are diluted 1/500 and levels” for “Levels”, “gag” for “gag levels”
# [4] = test system: CD69 expression in CD4+ T-cells; test: Activation of primary T lymphocytes (CD69 expression, flow cytometry); format: cell-based, human; settings: 16 hours
# Experimental: Expression of the early activation marker CD69 was assessed by flow cytometry in 8 separate experiments with data from one representative experiment shown in figure.
# Activation of primary T lymphocytes: PBMC's are purified using Ficoll Paque gradient centrifugation from fresh blood obtained from healthy donors. 5*10^5 cells are stimulated by different concentrations of HDACi in final volume of 500 uL RPMI media supplemented with 10% heat inactivated Foetal Bovine Serum and 1% penicillin/streptomycin. After 16 hours cells are harvested and washed once in PBS. Cells are stained with Live-dead near IR at a final concentration of 2 uM (Invitrogen, Denmark) for 30 min on ice. Cells are washed twice in PBS. Five uL Fc Block (Sigma, Denmark) at 10 mg/mL is added and cells are incubated 10 min on ice. Cells are subsequently stained with 5 uL CD4 PerCPCy5.5, 5 uL CD27 PE-Cy7, 7 uL CD45RA FITC, 20 uL CCR7 PE all (BD, USA) and 10 uL CD69 APC (BioLegend, USA) for 30 min on ice. Lastly, cells are washed once in PBS and resuspended in FACS flow buffer and stored on ice until analysis by flow cytometry.
# Cytotoxicity of LBH589 = format: cell-based; settings: up to 30 nM
# histone H3 acetylation = test: Histone H3 acetylation in PBMC's of patients during panobinostat administration; format: in vivo, human
# Experimental: One million freshly isolated PBMC's harvested from CPT vacutainers (BD Bioscience, UK) were washed in ice-cold PBS with 1% FBS. Subsequently cells were fixed in 200 uL 1% paraformaldehyde for 15 min on ice and afterwards washed in PBS. […] Following a wash in FACS buffer (PBS/2% FBS), cells were blocked in PBS with 10% FBS for 20 min at RT. For each patient one sample was incubated for 1 hr at RT with either 5 uL primary anti-acetyl histone H3 antibody (Millipore, DK) or 5μ isotype control (final antibody concentration: 10 μg/m). Subsequently, cells were washed in FACS buffer and incubated with 5 uL secondary (Alexa-Flour 488 donkey anti-rabbit IgG from Life Technologies, DK) for 1 hr in the dark at RT (final antibody concentration: 6 μg/m). Lastly, cells were washed in FACS buffer, resuspended in PBS and analyzed on a FACS Canto II.
# [5] = test system: cell-associated unspliced HIV RNA; test: Cell associated unspliced Gag HIV RNA in CD4+ T cells of treated patients; format: in vivo, HIV-1
# Experimental: RNA purified from 1 million CD4+ T cells was treated with DNAse and split in 4 portions. Preparation of cDNA was performed by Superscript III Reverse Transcriptase as described by the manufacturer using both Oligo dT and random hexamer priming (Life Technologies, DK). Each cDNA sample was assayed in duplicate in a semi-nested real-time PCR quantification yielding eight replicates for each patient sample.
# First round amplification was carried out with primers 5′-[…]-3′ (SEQ ID NO: 1) and 5′-[…]-3′ (SEQ ID NO: 2) with AmpliTaq gold mastermix (Life Technologies, DK) for a limited 15 cycles and input of 5 uL cDNA.
# PCR conditions were as follows: A denaturation step at 95° C. for 10 minutes followed by 15 cycles of 20 seconds at 94° C., 40 seconds at 55° C. and 40 seconds at 72° C. Second round real-time PCR was performed using SYBR green mastermix (Life Technologies, DK) and primers 5′-[…]-3′ (SEQ ID NO: 3) and 5′-[…]-3′ (SEQ ID NO: 4) on a Bio-Rad CFX96™ Real-time PCR Platform. PCR conditions were as follows: A denaturation step at 95° C. for 10 minutes followed by 45 cycles of 20 seconds at 94° C., 40 seconds at 55° C., 40 seconds at 72° C. Subsequently, a dissociation curve was obtained by heating from 65° C. to 95° C. with a 0.5° C. increment for 5 seconds. A serial diluted standard allow for relative quantification of HIV Gag RNA levels.
# [6] = test system: HIV proviral DNA in CD4+ T cells; test: Total HIV proviral DNA in purified CD4+ T cells of treated patients; format: in vivo, HIV-1
# Experimental: DNA was isolated from 1×10^6 CD4+ T cells using AllPrep DNA/RNA Mini kit according to the manufacturer's specifications (Qiagen, Denmark). Cell equivalents were based on RNAseP amplification. The following primers were used to target human RNAseP 5′-[…]-3′ (forward) (SEQ ID NO: 5) and 5′-[…]-3′ (reverse) (SEQ ID NO: 6). Amplification reactions were carried out in duplicates with a primer concentration of 0.5 μM, 10 μL SsoFast™ EvaGreen® Supermix and 1 μL 100-fold diluted DNA as template in 20 μl total volume.
# Using the RNAsePgenome copy number, sample DNA was diluted to 50,000 cell equivalents per PCR reaction. To determine the frequency of CD4+ T cells carrying HIV DNA, we prepared a standard curve obtained by serially diluted DNA from 8E5 cells (carrying one integrated provirus per genome) combined with DNA from HIV-negative PBMCs (305, 153, 76, 38, 19, 9 HIV DNA copies and 100,000 HIV negative cell equivalents per well). The following primers were used to target HIV-DNA: 5′-[…]-3′ (forward) (SEQ ID NO: 7) and 5′-[…]-3′ (reverse) (SEQ ID NO: 8).
# The amplification reaction was carried out in triplicates with a primer concentration of 0.5 μM, 10 μL SsoFast™ EvaGreen® Supermix and 100,000 genomes as template in 20 μl total volume on a Bio-Rad CFX96™ Real-time PCR Platform. PCR conditions were as follows: A denaturation step at 95° C. followed by 45 cycles of 10 seconds at 95° C. and 25 seconds at 62° C. Subsequently a melt curve was obtained heating from 65° C. to 95° C. with a 0.5° C. increment for 5 seconds. Cycle cut off was set at 39 cycles. Amplification products were verified by dissociaton curve. Copy number of HIV DNA per 1×10^6 CD4+ T cells was calculated from the real-time PCR results.
# From the HIV DNA standard curve we set a lower limit of quantification of 12 copies HIV DNA/10^6 CD4+ T cells.
# Samples were drawn from two patients at Baseline (prior to initiation of panobinostat treatment) and after 4 weeks and 8 weeks cyclic panobinostat treatment 20 mg TIW every other week.
# CD4+ T cells = test: CD4+ T cell counts in blood during panobinostat treatment; format: in vivo, human; settings: intermittent dosing over 51 days, 20 mg oral TIW every other week, HIV-1 patients on HAART
# Experimental: Measurement of CD4+ T cell counts was performed by flow cytometry as part of routine diagnostics evaluation of HIV-1 patients.
# [7] = 20 mg oral; cited from earlier work
# latent viral reservoir = settings: clinical study; effect could not be sustained in further studies; cited from earlier work
structure (smiles),measurement,setting,value
CCN(CC)Cc1ccc2cc(COC(=O)Nc3ccc(C(=O)NO)cc3)ccc2c1 [ITF2357],fold increase in median p24 levels with reference to untreated cultures,[1]; 125 nM,3.2 fold
same,fold increase in median p24 levels with reference to untreated cultures,[1]; 250 nM,9.2 fold
same,fold increase in median p24 levels with reference to untreated cultures,[2]; 125 nM,6.2 fold
same,fold increase in median p24 levels with reference to untreated cultures,[2]; 250 nM,18.5 fold
same,surface expression of CXCR4,CXCR4,decreased surface expression
same,surface expression of CCR5,CCR5,decreased surface expression
"Cc1[nH]c2ccccc2c1CCNCc1ccc(/C=C/C(=O)NO)cc1 [LBH589, N-Hydroxy-3-[4-[2-(2-methyl-1H-indol-3-yl)ethylaminomethyl]phenyl]-2(E)-propenamide]",rank order of induced HIV-1 expression,[3]; direct comparison at the concentration obtained with clinical use,LBH589>ITF2357 and PXD101>SAHA
same,rank order of potency when stimulating HIV-1 expression,[3]; latently infected cell lines,LBH589>ITF2357 and PXD101>SAHA>VPA
same,concentration range in which HIV-1 expression is induced,[3]; latently infected cell lines U1 and ACH2,8 to 32 nM
same,"concentration at which induction of CD69 expression occurred, compared with other HDACi",[4]; CD4+ T-cells,"much lower concentrations of LBH589 than ITF2357, PXD101, and SAHA"
same,proportion of primary T-cells expressing the early activation marker CD69,"[4]; PBMCs from healthy donors, increasing concentrations (2-31 nM), compared to untreated cells",increased
same,CD69 expression in memory T-cell subsets,[4]; central memory T-cells,highest levels
same,cytotoxicity,Cytotoxicity of LBH589,No cytotoxicity above background
same,average increase of histone H3 acetylation from baseline,"histone H3 acetylation; day 4, eight patients, PBMC's, panobinostat 20 mg TIW every other week",267%
same,levels of histone acetylation,histone H3 acetylation; off-treatment weeks,dropped to near baseline levels
same,cell-associated unspliced Gag HIV RNA,"[5]; patient A, first off/on cycle analyzed, off treatment",178 Gag HIV RNA copies
same,cell-associated unspliced Gag HIV RNA,"[5]; patient A, first off/on cycle analyzed, on treatment",323 Gag HIV RNA copies
same,cell-associated unspliced Gag HIV RNA,"[5]; patient A, second off/on cycle analyzed, off treatment",57 Gag HIV RNA copies
same,cell-associated unspliced Gag HIV RNA,"[5]; patient A, second off/on cycle analyzed, on treatment",362 Gag HIV RNA copies
same,cell-associated unspliced Gag HIV RNA,"[5]; patient B, first off/on cycle analyzed, off treatment",504 Gag HIV RNA copies
same,cell-associated unspliced Gag HIV RNA,"[5]; patient B, first off/on cycle analyzed, on treatment",841 Gag HIV RNA copies
same,cell-associated unspliced Gag HIV RNA,"[5]; patient B, second off/on cycle analyzed, off treatment",892 Gag HIV RNA copies
same,cell-associated unspliced Gag HIV RNA,"[5]; patient B, second off/on cycle analyzed, on treatment",1196 Gag HIV RNA copies
same,proviral DNA level,"[6]; patient A, end of treatment (8 weeks), baseline 46 copies/10^6 CD4+ T cell",remained low
same,proviral DNA level,"[6]; patient A, first two treatment cycles (4 weeks), 20 mg TIW every other week, baseline 46 copies/10^6 CD4+ T cell, lower limit of quantification 12 copies",dropped below detection
same,proviral DNA level,"[6]; patient B, after 4 weeks, baseline 173 copies/10^6 CD4+ T cells",125 copies/10^6 CD4+ T cell
same,proviral DNA level,"[6]; patient B, end of treatment (8 weeks), baseline 173 copies/10^6 CD4+ T cells, lower limit of quantification 12 copies",undetectable
same,effect on CD4+ T cell counts in blood,CD4+ T cells,no immune deterioration
same,maximal plasma concentration,[7],approximately 60 nM
O=C(/C=C/c1cccc(S(=O)(=O)Nc2ccccc2)c1)NO [PXD101],fold increase in median p24 levels with reference to untreated cultures,[1]; 125 nM,2.4 fold
same,fold increase in median p24 levels with reference to untreated cultures,[1]; 250 nM,7.4 fold
same,fold increase in median p24 levels with reference to untreated cultures,[2]; 125 nM,5.8 fold
same,fold increase in median p24 levels with reference to untreated cultures,[2]; 250 nM,18.3 fold
"O=C(CCCCCCC(=O)Nc1ccccc1)NO [SAHA, suberoylanilide hydroxamic acid]",fold increase in median p24 levels with reference to untreated cultures,[1]; 125 nM,1.0 fold
same,fold increase in median p24 levels with reference to untreated cultures,[1]; 250 nM,1.5 fold
same,fold increase in median p24 levels with reference to untreated cultures,[1]; 500 nM,3.1 fold
same,fold increase in median p24 levels with reference to untreated cultures,[2]; 125 nM,1.4 fold
same,fold increase in median p24 levels with reference to untreated cultures,[2]; 250 nM,2.4 fold
same,fold increase in median p24 levels with reference to untreated cultures,[2]; 500 nM,6.9 fold
"CCCC(CCC)C(=O)O [VPA, valproic acid]",fold increase in median p24 levels with reference to untreated cultures,[1]; 0.25 mM,1.4 fold
same,fold increase in median p24 levels with reference to untreated cultures,[1]; 0.5 mM,2.8 fold
same,fold increase in median p24 levels with reference to untreated cultures,[2]; 0.25 mM,2.1 fold
same,fold increase in median p24 levels with reference to untreated cultures,[2]; 0.5 mM,7.3 fold
same,patients in whom depletion of the latent viral reservoir was seen,latent viral reservoir,3 of 4
